Measured values taken from ChEMBL document CHEMBL1201862, “PubChem BioAssay data set” (2004).
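Briefly, cells in 96-well plates were exposed to five compound concentrations for 48 h, and endpoints were estimated by linear interpolation. The concentration for 50% growth inhibition is given as GI50.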 The source made the active and inactive calls. Cut-off read from the data, not from the text of the source: active = GI50 up to about 1.1 µM and inactive = higher.

Experiments:
Experiment in all cases: inhibition of tumour cell growth, NCI panel, 48 h
786-0 = system: 786-0
A549 = system: A549
ACHN = system: ACHN
BT-549 = system: BT-549
CAKI-1 = system: CAKI-1
CCRF-CEM = system: CCRF-CEM
COLO 205 = system: COLO 205
DU-145 = system: DU-145
EKVX = system: EKVX
HCC 2998 = system: HCC 2998
HCT-116 = system: HCT-116
HCT-15 = system: HCT-15
HL-60 = system: HL-60
HOP-62 = system: HOP-62
HT-29 = system: HT-29
Hs-578T = system: Hs-578T
IGROV-1 = system: IGROV-1
K562 = system: K562
KM12 = system: KM12
LOX IMVI = system: LOX IMVI
M14 = system: M14
MCF7 = system: MCF7
MDA-MB-231 = system: MDA-MB-231
MDA-MB-435 = system: MDA-MB-435
MDA-N = system: MDA-N
MOLT-4 = system: MOLT-4
Malme-3M = system: Malme-3M
NCI-H226 = system: NCI-H226
NCI-H23 = system: NCI-H23
NCI-H460 = system: NCI-H460
NCI/ADR-RES = system: NCI/ADR-RES
OVCAR-3 = system: OVCAR-3
OVCAR-4 = system: OVCAR-4
OVCAR-5 = system: OVCAR-5
OVCAR-8 = system: OVCAR-8
PC-3 = system: PC-3
RPMI-8226 = system: RPMI-8226
RXF 393 = system: RXF 393
SF-268 = system: SF-268
SF-295 = system: SF-295
SK-MEL-28 = system: SK-MEL-28
SK-MEL-2 = system: SK-MEL-2
SK-MEL-5 = system: SK-MEL-5
SK-OV-3 = system: SK-OV-3
SN12C = system: SN12C
SNB-19 = system: SNB-19
SNB-75 = system: SNB-75
SR = system: SR
SW-620 = system: SW-620
T47D = system: T47D
TK-10 = system: TK-10
U-251 = system: U-251
UACC-257 = system: UACC-257
UACC-62 = system: UACC-62
UO-31 = system: UO-31
A498 = system: A498
HOP-92 = system: HOP-92
NCI-H522 = system: NCI-H522
SF-539 = system: SF-539

Measured: GI50

Nc1nc(-c2ccccc2)cc(-c2ccc(F)cc2)c1-c1ccc(Cl)cc1
> 100 µM: HCT-15
inactive: 786-0 88.3 µM | A549 > 100 µM | ACHN > 100 µM | BT-549 > 100 µM | CAKI-1 > 100 µM | CCRF-CEM 33.2 µM | COLO 205 > 100 µM | DU-145 > 100 µM | EKVX > 100 µM | HCC 2998 > 100 µM | HCT-116 > 100 µM | HL-60 21.4 µM | HOP-62 32.6 µM | HT-29 13.2 µM | Hs-578T 73.3 µM | IGROV-1 > 100 µM | K562 12.5 µM | KM12 > 100 µM | LOX IMVI > 100 µM | M14 > 100 µM | MCF7 41.7 µM | MDA-MB-231 > 100 µM | MDA-MB-435 > 100 µM | MDA-N > 100 µM | MOLT-4 5.57 µM | Malme-3M > 100 µM | NCI-H226 > 100 µM | NCI-H23 > 100 µM | NCI-H460 31.3 µM | NCI/ADR-RES > 100 µM | OVCAR-3 > 100 µM | OVCAR-4 88.9 µM | OVCAR-5 > 100 µM | OVCAR-8 > 100 µM | PC-3 > 100 µM | RPMI-8226 44.3 µM | RXF 393 > 100 µM | SF-268 > 100 µM | SF-295 41.6 µM | SK-MEL-28 > 100 µM | SK-MEL-2 > 100 µM | SK-MEL-5 > 100 µM | SK-OV-3 > 100 µM | SN12C > 100 µM | SNB-19 > 100 µM | SNB-75 > 100 µM | SR 22.2 µM | SW-620 > 100 µM | T47D > 100 µM | TK-10 > 100 µM | U-251 > 100 µM | UACC-257 > 100 µM | UACC-62 > 100 µM | UO-31 > 100 µM

CCCCCCCCCCCCCCN [TETRADECYLAMINE]
> 100 µM: HCT-15
inactive: 786-0 > 100 µM | A498 > 100 µM | ACHN > 100 µM | BT-549 > 100 µM | CAKI-1 > 100 µM | CCRF-CEM > 100 µM | COLO 205 > 100 µM | DU-145 > 100 µM | EKVX > 100 µM | HCC 2998 > 100 µM | HCT-116 > 100 µM | HL-60 > 100 µM | HOP-62 > 100 µM | HOP-92 > 100 µM | HT-29 > 100 µM | Hs-578T > 100 µM | IGROV-1 > 100 µM | K562 > 100 µM | KM12 > 100 µM | LOX IMVI > 100 µM | MCF7 > 100 µM | MDA-MB-231 > 100 µM | MDA-MB-435 > 100 µM | MDA-N > 100 µM | MOLT-4 > 100 µM | Malme-3M > 100 µM | NCI-H23 > 100 µM | NCI-H460 > 100 µM | NCI-H522 > 100 µM | NCI/ADR-RES > 100 µM | OVCAR-3 > 100 µM | OVCAR-4 > 100 µM | OVCAR-5 > 100 µM | OVCAR-8 > 100 µM | PC-3 > 100 µM | RPMI-8226 > 100 µM | RXF 393 > 100 µM | SF-268 > 100 µM | SF-295 > 100 µM | SK-MEL-28 > 100 µM | SK-MEL-2 > 100 µM | SK-MEL-5 > 100 µM | SK-OV-3 > 100 µM | SN12C > 100 µM | SNB-75 > 100 µM | SW-620 > 100 µM | T47D > 100 µM | TK-10 > 100 µM | U-251 > 100 µM | UACC-257 > 100 µM | UACC-62 > 100 µM

O=[N+]([O-])c1cccc(-c2ncnc(-c3cccc([N+](=O)[O-])c3)n2)c1
inactive: 786-0 27.4 µM | A498 23.9 µM | A549 > 100 µM | BT-549 32.2 µM | CAKI-1 18.4 µM | COLO 205 > 100 µM | DU-145 > 100 µM | EKVX > 100 µM | HCC 2998 > 100 µM | HCT-116 > 100 µM | HL-60 36.6 µM | HOP-62 17.8 µM | HOP-92 19.5 µM | HT-29 > 100 µM | Hs-578T 51.2 µM | IGROV-1 > 100 µM | K562 48.6 µM | KM12 > 100 µM | LOX IMVI > 100 µM | M14 > 100 µM | MCF7 > 100 µM | MDA-MB-231 34.9 µM | MDA-MB-435 > 100 µM | MDA-N > 100 µM | MOLT-4 > 100 µM | Malme-3M > 100 µM | NCI-H226 > 100 µM | NCI-H23 58.5 µM | NCI-H522 38.5 µM | NCI/ADR-RES > 100 µM | OVCAR-3 35.9 µM | OVCAR-5 > 100 µM | OVCAR-8 > 100 µM | PC-3 > 100 µM | RPMI-8226 > 100 µM | RXF 393 18.5 µM | SF-268 54 µM | SF-295 41.6 µM | SK-MEL-28 > 100 µM | SK-MEL-2 51.5 µM | SK-MEL-5 > 100 µM | SK-OV-3 27.1 µM | SN12C > 100 µM | SNB-75 26.7 µM | SW-620 > 100 µM | T47D 81.8 µM | TK-10 44.5 µM | U-251 23.5 µM | UACC-257 38.7 µM | UACC-62 27.4 µM | UO-31 > 100 µM

O=S1(=O)OCCOS(=O)(=O)C1C1c2ccccc2-c2ccccc21
35.4 µM: HCT-15
inactive: 786-0 20 µM | A498 > 100 µM | A549 40.8 µM | ACHN 27.2 µM | BT-549 48.8 µM | CAKI-1 29.7 µM | CCRF-CEM 16.4 µM | COLO 205 70.5 µM | DU-145 37.3 µM | EKVX 42.8 µM | HCC 2998 29 µM | HCT-116 28.6 µM | HL-60 15.5 µM | HOP-62 29.3 µM | HOP-92 > 100 µM | HT-29 34 µM | Hs-578T 44.9 µM | IGROV-1 23.5 µM | K562 31.3 µM | KM12 41.5 µM | LOX IMVI 14.8 µM | M14 38.3 µM | MCF7 39 µM | MDA-MB-231 > 100 µM | MDA-MB-435 33.6 µM | MDA-N 36.7 µM | MOLT-4 15.6 µM | Malme-3M 56.2 µM | NCI-H226 26 µM | NCI-H23 28.7 µM | NCI-H460 11.4 µM | NCI-H522 20.7 µM | NCI/ADR-RES 25.7 µM | OVCAR-3 47 µM | OVCAR-4 23 µM | OVCAR-5 72.3 µM | OVCAR-8 50.8 µM | PC-3 90.4 µM | RPMI-8226 28.6 µM | RXF 393 50.9 µM | SF-268 28.9 µM | SF-295 29 µM | SF-539 22.8 µM | SK-MEL-28 67.6 µM | SK-MEL-2 70.3 µM | SK-MEL-5 28.7 µM | SK-OV-3 40.3 µM | SN12C 48.6 µM | SNB-19 38.5 µM | SNB-75 2.41 µM | SW-620 26.9 µM | T47D 93.8 µM | TK-10 > 100 µM | U-251 20.7 µM | UACC-257 36.4 µM | UACC-62 21.7 µM | UO-31 28.7 µM

CCCCCCCCSC1=C(Cl)C(=O)C(OC)=C(OC)C1=O
6.34 µM: HCT-15
active: RPMI-8226 0.52 µM
inactive: 786-0 12.5 µM | A498 12.3 µM | A549 17.9 µM | ACHN 10 µM | BT-549 14 µM | CAKI-1 12.3 µM | CCRF-CEM 5.68 µM | COLO 205 17.1 µM | DU-145 15.1 µM | EKVX 10.9 µM | HCC 2998 15.2 µM | HCT-116 4.83 µM | HL-60 2.11 µM | HOP-62 17.2 µM | HOP-92 17 µM | HT-29 16.9 µM | Hs-578T 20.7 µM | IGROV-1 14.1 µM | K562 9.71 µM | KM12 7.53 µM | LOX IMVI 4.57 µM | M14 2.16 µM | MCF7 3.94 µM | MDA-MB-231 12.4 µM | MDA-MB-435 4.45 µM | MDA-N 3.82 µM | MOLT-4 3.12 µM | Malme-3M 7.73 µM | NCI-H226 12.4 µM | NCI-H23 13 µM | NCI-H460 15.4 µM | NCI-H522 2.47 µM | NCI/ADR-RES 17.4 µM | OVCAR-3 7.14 µM | OVCAR-4 11.1 µM | OVCAR-5 6.67 µM | OVCAR-8 12 µM | PC-3 14.2 µM | RXF 393 13.2 µM | SF-268 12.4 µM | SF-295 12.5 µM | SF-539 14.2 µM | SK-MEL-2 15.4 µM | SK-MEL-5 4.74 µM | SK-OV-3 23.1 µM | SN12C 5.09 µM | SNB-19 10.5 µM | SNB-75 19.1 µM | SW-620 10.6 µM | T47D 5.08 µM | TK-10 14.1 µM | U-251 10.5 µM | UACC-257 5.6 µM | UACC-62 10.3 µM | UO-31 12.1 µM
